Results taken from PMC5902452, “In silico optimization of a guava antimicrobial peptide enables combinatorial exploration for peptide design” (Nature Communications, 2018).
pIC50: −log10 of the molar value. Peptide text beside a SMILES is read from it.

Columns and labels:
E. coli ATCC 25922 [1] = type: cell-based, Escherichia coli
Experimental: Exponentially growing bacteria in LB were harvested by centrifugation, washed three times in PBS and suspended in the same buffer to a final concentration of 10^7 cfu mL^−1. One hundred microliters of this bacterial suspension was incubated with a dose of peptide corresponding to twofold the MIC. Then, aliquots of 10 µL were withdrawn at different times, diluted in LB, and spread onto LB agar plates. The cfu were counted after overnight incubation at 37 °C.

E. coli ATCC 25922 [2] = experiment: SYTOX green uptake assay (membrane permeabilization); type: cell-based, Escherichia coli; details: 12.5 µM (twofold above the MIC), 1 h, 37 °C, PBS
Experimental: SG is impermeant to live cells and when the cell membrane is damaged, this dye penetrates into the cell and binds to intracellular DNA, due to its high-affinity to nucleic acids, leading to an increase in fluorescence. Exponentially growing bacteria (6 × 10^5 cfu mL^−1) were resuspended in PBS after centrifugation (1000 × g, 10 min, 4 °C) and washing steps. About 792 μL of the bacterial suspension was pre-incubated with 8 μL of 100 μM SG during 30 min at 37 °C in the dark. […] Results correspond to a representative experiment with negative (PBS) and positive (melittin) controls. Three independent experiments were performed.

HEK-293 cells = experiment: Cytotoxicity, MTT-based microassay; type: cell-based, human; details: purified peptide, HEK-293, 72 h, 37 °C, 12.5–200 µM, mean of three independent experiments in triplicate, read-out: Active concentration (inhibitory concentration 50, IC50)
Experimental: HEK-293 cells were cultured in DMEM medium, and incubated at 37 °C in a humidified atmosphere of 5% CO2. Cell viability was quantified after peptide incubation using a methylthiazolyldiphenyl-tetrazolium bromide (MTT)-based microassay. […] Then, 10 µL of MTT (5 mg mL^−1 in PBS) was added to each well and the cells were further incubated for 4 h in the dark. The formazan crystals formed by mitochondrial reductases in intact cells are insoluble in aqueous solutions and precipitate. Formazan crystals were dissolved using a solubilization solution (40% dimethylformamide in 2% glacial acetic acid, 16% sodium dodecyl sulfate, pH 4.7) followed by 1 h incubation at 37 °C under shaking (150 rpm). Finally, the absorbance of the resuspended formazan was measured at 570 nm. Data were analyzed with GraphPad Prism® 5.0 software to determine the inhibitory concentration 50 (IC50), which corresponds to the peptide concentration producing 50% cell death. Results were expressed as the mean of three independent experiments performed in triplicate.

[3] = test system: Candida parapsilosis ATCC 22019; type: cell-based; details: ATCC 22019, 18 h
Description: (§2) Lysogeny Broth (LB) was used for cultures of Acinetobacter baumannii ATCC 19606, Enterococcus faecalis ATCC 29212, Escherichia coli ATCC 25922, Klebsiella pneumoniae ATCC 13883, Pseudomonas aeruginosa ATCC 27853, and S. aureus ATCC 25923. Brain Heart Infusion (BHI) broth was used for cultures of Listeria ivanovii Li 4pVS2 and Streptococcus pyogenes ATCC 19615. Yeast peptone dextrose (YPD) medium was used for Candida species (C. albicans ATCC 90028 and C. parapsilosis ATCC 22019). MH (Mueller Hinton) broth was used for suspend centrifuged culture of bacteria and yeasts in logarithmic phase to an A630 of 0.01 (~10^6 cfu mL^−1), except for S. pyogenes, L. ivanovii, and E. faecalis that were suspended in their respective growth medium. […] A microplate reader (UVM 340, Asys Hitech) was used to monitor the antimicrobial susceptibility by measuring the change in A630. […] Each experiment was performed in triplicate with positive (0.7% formaldehyde) and negative (without peptide) inhibition controls.

[4] = test system: Streptococcus pyogenes ATCC 19615; type: cell-based; details: ATCC 19615, 18 h
Description: as §2

human erythrocytes = experiment: Hemolytic assay; details: SPOT-synthesized crude peptides; human red blood cells in NaCl 0.85%, 1 h, 37 °C; hemoglobin release at 546 nm; highest concentration 200 μg mL−1; 100% of hemolysis was not observed
Experimental: Fresh human venous blood was collected from volunteers in Vacutainer collection tubes containing sodium heparin as an anticoagulant (BD Biosciences, Franklin Lakes, NJ). The blood was centrifuged applying 151 × g force (1500 rpm) and the serum was removed and the blood cells were replaced and washed three times with the same volume of sterile NaCl 0.85% solution. Concentrated red blood cells were diluted tenfold in NaCl 0.85% solution and then exposed at twofold dilutions of peptides for 1 h at 37 °C, at identical concentrations used for antimicrobial assays, in the ratio of 1:1 (v/v), achieving a final volume of 100 μL. The assay was carried out in 96-well polypropylene microtiter plates. The positive control wells contained 1% of Triton X-100, representing 100% cell lysis, and negative control wells contained sterile saline. Hemoglobin release was monitored chromogenically at 546 nm using a microplate reader.

E. coli 0157 = experiment: Antibiofilm assay; type: cell-based, Escherichia coli
Experimental: (§1) Overnight cultures of microorganisms [E. coli 0157, methicillin-resistant S. aureus (MRSA), K. pneumoniae 1825971, or C. albicans clinical isolate obtained from a blood culture maintained at LACEN (Laboratório Central de Saúde do Distrito Federal, a Brazilian reference laboratory for clinical isolates in Brasília, Brazil)] grown in LB broth (BD Difco) were diluted 1 in 100 in LB and Todd-Hewitt broth (BD Difco) or BM2 minimal medium [62 mM potassium phosphate buffer, pH 7.0, 7 mM (NH4)2SO4, 2 mM MgSO4, 10 μM FeSO4, 0.5% glucose], and 100 μL per well was added into 96-well round-bottom microplates. Absorbance at 600 nm was used to assess the planktonic cell growth. Non-adherent planktonic cells were removed from microtiter wells and washed twice with deionized water. Adherent cells were stained with 0.1% crystal violet for 20 min. The microplate wells were washed twice with deionized water, air dried, and solubilized with 110 μL of 70% ethanol. […] Biofilm formation was assessed by measuring the absorbance at 600 nm using a microplate reader (Bio-Tek Instruments, Inc., USA). The microdilution method for cationic peptides was used to determine the MIC for planktonic cells. Three biological replicates were performed for each experiment involving eight technical replicates.

[5] = test system: Candida albicans ATCC 90028; type: cell-based; details: ATCC 90028, 18 h
Description: as §2

K. pneumoniae 1825971 = experiment: Antibiofilm assay; type: cell-based, Klebsiella pneumoniae
Experimental: as §1

[6] = test system: Listeria ivanovii Li4pVS2; details: purified peptide; BHI broth, 18 h, 37 °C, A630; average of three independent experiments in triplicate
Description: as §2

[7] = test system: Escherichia coli ATCC 25922; experiment: Antimicrobial activity, MIC by twofold serial dilution; type: cell-based; details: purified peptide; MH broth, 18 h, 37 °C, A630; average of three independent experiments in triplicate
Description: as §2

[8] = test system: Enterococcus faecalis ATCC 29212; type: cell-based; details: ATCC 29212, 18 h
Description: as §2

[9] = test system: C. albicans clinical isolate; experiment: Antibiofilm assay (planktonic growth and biofilm formation, crystal violet); type: cell-based, Candida albicans
Experimental: as §1

[10] = test system: Acinetobacter baumannii ATCC 19606; experiment: Antimicrobial activity, MIC by twofold serial dilution; type: cell-based; details: purified peptide; MH broth, 18 h, 37 °C, A630; average of three independent experiments in triplicate
Description: as §2

[11] = test system: Staphylococcus aureus ATCC 25923; type: cell-based; details: ATCC 25923, 18 h
Description: as §2

[12] = test system: Klebsiella pneumoniae ATCC 13883; type: cell-based; details: ATCC 13883, 18 h
Description: as §2

With CC[C@H](C)[C@H](NC(=O)[C@H](CCCNC(=N)N)NC(=O)[C@H](Cc1ccc(O)cc1)NC(=O)CNC(=O)[C@H](Cc1ccc(O)cc1)NC(=O)[C@H](CCCNC(=N)N)NC(=O)[C@H](CC(C)C)NC(=O)[C@H](C)NC(=O)[C@H](CCC(N)=O)NC(=O)[C@H](CCC(=O)O)NC(=O)[C@@H](NC(=O)[C@H](CCC(N)=O)NC(=O)[C@H](CCCNC(=N)N)NC(=O)[C@H](CCSC)NC(=O)[C@H](Cc1ccc(O)cc1)NC(=O)[C@H](CCC(N)=O)NC(=O)[C@@H](N)CCCNC(=N)N)[C@@H](C)CC)C(=O)N[C@@H](CO)C(=O)N[C@@H](CCCNC(=N)N)C(=O)N[C@@H](CCCNC(=N)N)C(N)=O [Guavanin 2] (H-RQYMRQIEQALRYGYRISRR-NH2) the “colony-forming units remaining (from 10^7)” value (E. coli ATCC 25922 [1]; 12.5 µM (twofold above the MIC), 120 min) was ~ 10^5 colony-forming units, the “killing speed relative to [I^5, R^8] mastoparan” value (E. coli ATCC 25922 [1]; time–kill, E. coli) was “eightfold slower” and the “SYTOX Green influx (membrane permeabilization)” value (E. coli ATCC 25922 [2]) was “only a slow and very small amount of dye influx”. For the same molecule, the pIC50 (HEK-293 cells) was under 3.70, the “Active concentration (MIC)” value [3] was at least 50 µM and the “Active concentration (MIC)” value [4] was 50 µM. For the same molecule, the Hemolysis (human erythrocytes) was over 200 µg/mL, the antibiofilm activity (E. coli 0157) was “only able to reduce C. albicans biofilms” and the “Active concentration (MIC)” value [5] was over 200 µM. For the same molecule, the antibiofilm activity (K. pneumoniae 1825971) was “only able to reduce C. albicans biofilms”, the “Active concentration (MIC)” value [6] was 50 µM and the “Active concentration (MIC)” value [7] was 6.25 µM. The “Active concentration (MIC)” value [8] was over 100 µM, the antibiofilm activity [9] was “able to reduce C. albicans biofilms” and the “concentration from which biofilm formation is inhibited (p<0.05)” value ([9]; crystal violet, Student's t-test, three replicates) was 32 µg/mL. The “concentration from which planktonic cells are affected (p<0.05)” value ([9]; planktonic cells not eliminated, Student's t-test, three replicates) was 16 µg/mL, the “Active concentration (MIC)” value [10] was 6.25 µM and the “Active concentration (MIC)” value [11] was 100 µM. The “Active concentration (MIC)” value [12] was 80 µM.
